Test results reported in US20050207984A1, “Formoterol and ciclesonide aerosol formulations” (priority 2002, published 2005).

Assay: Chemical stability, ciclesonide related impurities by HPLC
Assay type: physicochemical
Conditions: 5 days at 50° C.
Description: MDI units from Example 2 were stored for 5 days at 50° C. in both valve-up and valve-down orientations (two units at each orientation). The samples were then tested for ciclesonide related impurities by High Performance Liquid Chromatography and the following results were obtained: […]

## CC(C)C(=O)OCC(=O)[C@@]12O[C@H](C3CCCCC3)O[C@@H]1C[C@H]1[C@@H]3CCC4=CC(=O)C=C[C@]4(C)[C@H]3[C@@H](O)C[C@@]12C [ciclesonide, 11β, 16α, 17, 21-tetrahydroxypregna 1,4-diene-3,20-dione, cyclic 16,17-acetal with cyclohexanecarboxaldehyde, 21-isobutyrate]
  chemical stability in the example formulation: high degree of chemical stability
